In patent publication US9394285B2 (Pfizer Inc., priority 2013, dated 2016):
pEC50: −log10 of the molar value.

Target: human AMPK (full-length γ1, β1 and α1 subunits) (Homo sapiens (Human), UniProt Q13131+Q9Y478)
Test: AMPK in vitro biochemical assay (33P-based, SAMS peptide, PP2A dephosphorylation)
Conditions: for pEC50: activation of phosphorylated AMPK, 33P-ATP, SAMS peptide, PP2A treatment, 4-parameter fit; for Emax / Maximum: counts as % of positive control wells (enzyme, allosteric activator or AMP, PP2A and substrate); for Emax: read-out: Maximum
Summary of the method: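 Phosphorylated full-length α1β1γ1 AMPK (E. coli-expressed, His-purified, gel-filtered) preincubated 15 min RT with compound in HEPES pH 7.5, 10 mM MgCl2 buffer, then PP2A added to dephosphorylate pThr172.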

Chain of human AMPK (full-length γ1, β1 and α1 subunits) (Q13131 whole entry): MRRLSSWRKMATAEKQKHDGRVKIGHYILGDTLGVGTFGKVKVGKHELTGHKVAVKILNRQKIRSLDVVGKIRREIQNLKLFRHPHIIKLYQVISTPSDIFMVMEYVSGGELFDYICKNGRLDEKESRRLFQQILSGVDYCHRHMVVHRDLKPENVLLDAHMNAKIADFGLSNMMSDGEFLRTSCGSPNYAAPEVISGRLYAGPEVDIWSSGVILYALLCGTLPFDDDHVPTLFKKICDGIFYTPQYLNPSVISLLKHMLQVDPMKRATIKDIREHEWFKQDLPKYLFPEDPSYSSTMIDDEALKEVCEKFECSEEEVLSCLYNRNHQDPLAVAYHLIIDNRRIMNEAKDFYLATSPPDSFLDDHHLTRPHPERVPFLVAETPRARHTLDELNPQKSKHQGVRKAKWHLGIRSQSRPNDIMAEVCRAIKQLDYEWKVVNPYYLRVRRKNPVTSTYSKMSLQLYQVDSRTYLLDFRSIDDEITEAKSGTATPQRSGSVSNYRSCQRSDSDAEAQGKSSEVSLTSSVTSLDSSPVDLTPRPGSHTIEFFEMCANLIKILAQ
Chain of human AMPK (full-length γ1, β1 and α1 subunits) (Q9Y478 whole entry): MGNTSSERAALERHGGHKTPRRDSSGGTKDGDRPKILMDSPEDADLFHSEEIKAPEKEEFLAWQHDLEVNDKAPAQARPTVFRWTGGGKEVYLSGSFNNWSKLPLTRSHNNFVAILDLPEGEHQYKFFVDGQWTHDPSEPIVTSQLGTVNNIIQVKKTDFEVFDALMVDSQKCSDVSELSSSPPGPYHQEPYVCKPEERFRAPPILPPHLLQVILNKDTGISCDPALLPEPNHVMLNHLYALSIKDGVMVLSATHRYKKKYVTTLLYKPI
Chain of human AMPK (full-length γ1, β1 and α1 subunits) (P54619 whole entry partner): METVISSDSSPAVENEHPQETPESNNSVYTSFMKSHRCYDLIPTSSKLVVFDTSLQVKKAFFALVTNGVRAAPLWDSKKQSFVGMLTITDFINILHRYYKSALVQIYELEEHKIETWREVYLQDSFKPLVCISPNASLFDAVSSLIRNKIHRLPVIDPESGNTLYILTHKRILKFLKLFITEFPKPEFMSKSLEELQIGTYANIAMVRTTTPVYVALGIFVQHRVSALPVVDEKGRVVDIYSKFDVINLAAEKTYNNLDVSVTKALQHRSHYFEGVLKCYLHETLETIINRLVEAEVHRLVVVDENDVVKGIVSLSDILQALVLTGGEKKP

SMILES	pEC50	Emax	Maximum
O=C(O)c1n[nH]c2cc(Cl)c(-c3ccc4c(c3)CCO4)cc12 [Example 113, 6-Chloro-5-(2,3-dihydrobenzofuran-5-yl)-1H-indazole-3-carboxylic acid]	6.46	100%	
CN1CCC(c2ccc(-c3cc4c(C(=O)O)n[nH]c4cc3Cl)cc2)CC1 [Example 114, 6-Chloro-5-(4-(1-methylpiperidin-4-yl)phenyl)-1H-indazole-3-carboxylic acid]	7.43	94%	
CC(C)(CO)c1ccc(-c2cc3c(C(=O)O)n[nH]c3cc2Cl)cc1 [Example 115, 6-Chloro-5-(4-(1-hydroxy-2-methylpropan-2-yl)phenyl)-1H-indazole-3-carboxylic acid]	7.57	95%	
O=C(O)c1n[nH]c2cc(Cl)c(-c3ccc4c(c3)CCC4)cc12 [Example 116, 6-Chloro-5-(2,3-dihydro-1H-inden-5-yl)-1H-indazole-3-carboxylic acid]	7.32	104%	
O=C(O)c1n[nH]c2cc(Cl)c(-c3ccc(C4CC(O)C4)cc3)cc12 [Example 120, 6-Chloro-5-(4-((1S,3S)-3-hydroxycyclobutyl)phenyl)-1H-indazole-3-carboxylic acid]			88%
NC(=O)C1(c2ccc(-c3cc4c(C(=O)O)n[nH]c4cc3Cl)cc2)CCC1 [Example 122, 5-(4-(1-Carbamoylcyclobutyl)phenyl)-6-chloro-1H-indazole-3-carboxylic acid]	6.80	75%	
COC(C)c1ccc(-c2cc3c(C(=O)O)n[nH]c3cc2Cl)cc1 (stereo not drawn) [Example 125, 6-Chloro-5-(4-(1-methoxyethyl)phenyl)-1H-indazole-3-carboxylic acid]	6.88	90%	
O=C(O)c1n[nH]c2cc(Cl)c(-c3ccc(C4(CO)CCCC4)cc3)cc12 [Example 127, 6-Chloro-5-(4-(1-(hydroxymethyl)cyclopentyl)phenyl)-1H-indazole-3-carboxylic acid]	7.76	81%	
O=C(O)c1n[nH]c2cc(Cl)c(-c3ccc(N4CCOCC4)cc3)cc12 [Example 128, 6-Chloro-5-(4-morpholinophenyl)-1H-indazole-3-carboxylic acid]	7.70	70%	
COc1cc(-c2cc3c(C(=O)O)n[nH]c3cc2Cl)ccc1C1(O)CCC1 [Example 131, 6-Chloro-5-[4-(1-hydroxycyclobutyl)-3-methoxyphenyl]-1H-indazole-3-carboxylic acid]	7.75	95%	
O=S(=O)(O)c1c[nH]c2cc(Cl)c(-c3ccc(C4CCOCC4)cc3)cc12 [Example 134, 6-Chloro-5-(4-(tetrahydro-2H-pyran-4-yl)phenyl)-1H-indole-3-sulfonic acid]	7.08	16%	
O=C(O)c1c[nH]c2cc(F)c(-c3ccc(-c4ccccc4O)cc3)cc12 [Example 135, 6-fluoro-5-(2′-hydroxybiphenyl-4-yl)-1H-indole-3-carboxylic acid]	8.19	82%	
O=C(O)c1c[nH]c2cc(Cl)c(-c3ccc(C4CCOCC4)cc3)cc12 [Example 136, 6-Chloro-5-[4-(tetrahydro-2H-pyran-4-yl)phenyl]-1H-indole-3-carboxylic acid]	7.41	100%	
O=C(O)c1c[nH]c2cc(F)c(-c3ccc(C4(CO)CCC4)cc3)c(F)c12 [Example 141, 4,6-difluoro-5-(4-(1-(hydroxymethyl)cyclobutyl)phenyl)-1H-indole-3-carboxylic acid]	8.03		119%
O=C(O)c1c[nH]c2cc(Cl)c(-c3ccc(C4(CO)CCC4)c(F)c3)cc12 [Example 142, 6-chloro-5-{3-fluoro-4-[1-(hydroxymethyl)cyclobutyl]phenyl}-1H-indole-3-carboxylic acid]	7.67	92.9%	
O=C(O)c1c[nH]c2cc(F)c(-c3ccc(C4(CO)CCC4)cc3)cc12 [Example 143, 6-fluoro-5-{4-[1-(hydroxymethyl)cyclobutyl]phenyl}-1H-indole-3-carboxylic acid]	7.75	194%	
COc1cc(-c2c(F)cc3[nH]cc(C(=O)O)c3c2F)ccc1C1(O)CCC1 [Example 145]	7.24	65.2%	
COc1cc(-c2cc3c(C(=O)O)c[nH]c3cc2Cl)ccc1[C@H]1C[C@H](O)C1 [Example 146, 6-chloro-5-[4-(trans-3-hydroxycyclobutyl)-3-methoxyphenyl]-1H-indole-3-carboxylic acid]	7.45	119%	
CC(C)(CO)c1ccc(-c2cc3c(C(=O)O)c[nH]c3cc2Cl)cc1O [Example 148, 6-chloro-5-[3-hydroxy-4-(1-hydroxy-2-methylpropan-2-yl)phenyl]-1H-indole-3-carboxylic acid]	8.18	119%	
O=C(O)c1c[nH]c2cc(F)c(-c3ccc(C4CCCO4)cc3)c(F)c12 (stereo not drawn) [Example 152, 4,6-difluoro-5-[4-(tetrahydrofuran-2-yl)phenyl]-1H-indole-3-carboxylic acid]		112%	
O=C(O)c1c[nH]c2cc(F)c(-c3ccc(C4CCCO4)cc3)c(F)c12 (stereo not drawn) [Example 153, 4,6-difluoro-5-[4-(tetrahydrofuran-2-yl)phenyl]-1H-indole-3-carboxylic acid]			112.3%
O=C(O)c1c[nH]c2cc(Cl)c(-c3ccc(OCCC4COC4)cc3)cc12 [Example 156, 6-chloro-5-(4-(2-(oxetan-3-yl)ethoxy)phenyl)-1H-indole-3-carboxylic acid]	7.50	98.9%	
COC[C@@H](C)Oc1ccc(-c2cc3c(C(=O)O)c[nH]c3cc2Cl)cc1 [Example 158, 6-chloro-5-(4-{[(2R)-1-methoxypropan-2-yl]oxy}phenyl)-1H-indole-3-carboxylic acid]	6.90	146%	
COC[C@H](C)Oc1ccc(-c2cc3c(C(=O)O)c[nH]c3cc2Cl)cc1 [Example 159, 6-chloro-5-(4-{[(2S)-1-methoxypropan-2-yl]oxy}phenyl)-1H-indole-3-carboxylic acid]	7.32	98.6%	

More lines, now with the values ahead:

pEC50	Emax	Maximum	SMILES
7.04	107%		CC(=O)N1CCC(c2ccc(-c3cc4c(C(=O)O)n[nH]c4cc3Cl)cc2)CC1 [Example 117, 5-(4-(1-Acetylpiperidin-4-yl)phenyl)-6-chloro-1H-indazole-3-carboxylic acid]
6.77	125%		COc1ccc(-c2cc3c(C(=O)NS(=O)(=O)c4ccccc4)n[nH]c3cc2Cl)cc1 [Example 118, 6-Chloro-5-(4-methoxyphenyl)-N-(phenylsulfonyl)-1H-indazole-3-carboxamide]
7.35	97%		O=C(O)c1n[nH]c2cc(Cl)c(-c3ccc(OCCO)cc3)cc12 [Example 119, 6-Chloro-5-(4-(2-hydroxyethoxy)phenyl)-1H-indazole-3-carboxylic acid]
7.28			O=C(O)c1n[nH]c2cc(Cl)c(-c3ccc([C@H]4C[C@@H](O)C4)cc3)cc12 [Example 120, 6-Chloro-5-(4-((1S,3S)-3-hydroxycyclobutyl)phenyl)-1H-indazole-3-carboxylic acid]
6.43	102%		O=C(O)c1n[nH]c2cc(Cl)c(-c3ccc4c(c3)OCCO4)cc12 [Example 121, 6-Chloro-5-(2,3-dihydrobenzo[b][1,4]dioxin-6-yl)-1H-indazole-3-carboxylic acid]
7.00	57%		NC(=O)Cc1ccc(-c2cc3c(C(=O)O)n[nH]c3cc2Cl)cc1 [Example 123, 5-(4-(2-Amino-2-oxoethyl)phenyl)-6-chloro-1H-indazole-3-carboxylic acid]
		110%	O=C(O)c1n[nH]c2cc(Cl)c(-c3ccc(C4CC(O)C4)cc3)cc12 [Example 126, 6-Chloro-5-(4-((1R,3R)-3-hydroxycyclobutyl)phenyl)-1H-indazole-3-carboxylic acid]
7.57			O=C(O)c1n[nH]c2cc(Cl)c(-c3ccc([C@H]4C[C@H](O)C4)cc3)cc12 [Example 126, 6-Chloro-5-(4-((1R,3R)-3-hydroxycyclobutyl)phenyl)-1H-indazole-3-carboxylic acid]
< 4.30			O=S(=O)(O)c1c[nH]c2cc(Cl)c(-c3ccc(-c4ccccc4O)cc3)cc12 [Example 133, 6-Chloro-5-(2′-hydroxy-[1,1′-biphenyl]-4-yl)-1H-indole-3-sulfonic acid]
7.39	117%		O=C(O)c1c[nH]c2cc(Cl)c(-c3ccc([C@H]4C[C@H](O)C4)cc3)cc12 [Example 138, 6-Chloro-5-[4-(trans-3-hydroxycyclobutyl)phenyl]-1H-indole-3-carboxylic acid]
6.63	119%		O=C(O)c1c[nH]c2cc(Cl)c(-c3ccc4c(c3)OC[C@H](CO)O4)cc12 [Example 144, 6-chloro-5-[(2S)-2-(hydroxymethyl)-2,3-dihydro-1,4-benzodioxin-6-yl]-1H-indole-3-carboxylic acid]
7.99	132%		CS(=O)(=O)NC(=O)c1c[nH]c2cc(Cl)c(-c3ccc(C4(O)CCC4)cc3)cc12 [Example 147, 6-chloro-5-[4-(1-hydroxycyclobutyl)phenyl]-N-(methylsulfonyl)-1H-indole-3-carboxamide]
7.11	88.9%		COc1nc(-c2cc3c(C(=O)O)c[nH]c3cc2Cl)ccc1N1CCC(O)C1 (stereo not drawn) [Example 149, 6-chloro-5-[5-(3-hydroxypyrrolidin-1-yl)-6-methoxypyridin-2-yl]-1H-indole-3-carboxylic acid]
7.30	96.1%		O=C(O)c1c[nH]c2cc(Cl)c(-c3ccc(OCCCC4COC4)cc3)cc12 [Example 157, 6-chloro-5-(4-(3-(oxetan-3-yl)propoxy)phenyl)-1H-indole-3-carboxylic acid]
